One experiment concerns MGAT4. Conditions: read-out: Km for UDP-GlcNAc; cited from earlier work.
The test system of experiment [1] is UDP-GlcNAc/UMP transporter. The following applies: UDP-GlcNAc/UMP transport, model parameter; cited from earlier work.
The next experiment deals with T1, MGAT5 enzyme (Homo sapiens, UniProt Q09328).
T1 sequence (Q09328 1-741): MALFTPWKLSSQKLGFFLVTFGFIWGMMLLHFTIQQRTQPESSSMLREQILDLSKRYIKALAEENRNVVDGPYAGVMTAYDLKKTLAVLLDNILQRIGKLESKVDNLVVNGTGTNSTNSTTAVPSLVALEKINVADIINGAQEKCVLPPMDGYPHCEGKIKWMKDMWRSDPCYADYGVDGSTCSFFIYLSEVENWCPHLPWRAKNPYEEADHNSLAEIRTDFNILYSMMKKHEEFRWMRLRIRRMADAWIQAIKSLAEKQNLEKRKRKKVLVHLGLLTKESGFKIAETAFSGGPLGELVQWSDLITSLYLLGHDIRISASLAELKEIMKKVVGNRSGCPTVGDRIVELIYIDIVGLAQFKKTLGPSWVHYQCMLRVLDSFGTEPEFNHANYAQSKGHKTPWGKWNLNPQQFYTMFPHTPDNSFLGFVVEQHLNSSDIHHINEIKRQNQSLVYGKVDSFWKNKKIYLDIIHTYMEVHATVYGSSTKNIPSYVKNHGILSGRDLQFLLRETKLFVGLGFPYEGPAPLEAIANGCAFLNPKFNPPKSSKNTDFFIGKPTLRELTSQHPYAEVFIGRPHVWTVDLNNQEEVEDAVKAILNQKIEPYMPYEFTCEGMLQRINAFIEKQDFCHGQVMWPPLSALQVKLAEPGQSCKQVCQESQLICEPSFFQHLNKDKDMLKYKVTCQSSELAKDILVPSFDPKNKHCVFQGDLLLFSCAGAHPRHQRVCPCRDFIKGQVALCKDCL
Conditions: read-out: Km for UDP-GlcNAc; cited from earlier work.

The target in another experiment is T2, MGAT2 (Homo sapiens, UniProt Q10469).
T2 sequence (Q10469 1-447): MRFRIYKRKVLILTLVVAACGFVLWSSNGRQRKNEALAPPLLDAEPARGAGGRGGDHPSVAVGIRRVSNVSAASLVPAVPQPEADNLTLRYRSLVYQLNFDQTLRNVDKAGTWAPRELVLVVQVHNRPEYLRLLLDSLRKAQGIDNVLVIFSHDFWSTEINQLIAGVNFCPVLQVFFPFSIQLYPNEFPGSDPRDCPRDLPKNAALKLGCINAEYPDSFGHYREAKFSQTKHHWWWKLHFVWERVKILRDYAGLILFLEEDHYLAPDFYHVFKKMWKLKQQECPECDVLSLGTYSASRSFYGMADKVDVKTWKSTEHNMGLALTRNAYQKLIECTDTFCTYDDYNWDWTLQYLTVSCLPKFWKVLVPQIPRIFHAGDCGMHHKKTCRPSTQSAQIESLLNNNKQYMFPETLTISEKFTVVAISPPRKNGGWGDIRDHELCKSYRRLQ
The following applies: read-out: Km for UDP-GlcNAc; cited from earlier work.

The target in another experiment is T3, MGAT1 (Homo sapiens, UniProt P26572).
T3 sequence (P26572 1-445): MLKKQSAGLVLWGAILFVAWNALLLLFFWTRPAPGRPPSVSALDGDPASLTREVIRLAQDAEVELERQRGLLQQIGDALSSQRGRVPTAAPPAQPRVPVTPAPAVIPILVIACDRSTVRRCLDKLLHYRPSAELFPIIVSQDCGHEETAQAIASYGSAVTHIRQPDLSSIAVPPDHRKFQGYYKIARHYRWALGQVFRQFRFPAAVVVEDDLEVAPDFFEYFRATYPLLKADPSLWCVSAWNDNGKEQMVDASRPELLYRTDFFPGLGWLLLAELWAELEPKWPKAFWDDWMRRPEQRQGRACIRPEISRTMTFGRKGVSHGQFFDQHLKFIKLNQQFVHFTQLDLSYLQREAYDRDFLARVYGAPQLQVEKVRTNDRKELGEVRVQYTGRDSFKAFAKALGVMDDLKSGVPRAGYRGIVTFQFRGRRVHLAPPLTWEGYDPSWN
The following applies: read-out: Km for UDP-GlcNAc; cited from earlier work.

The test system of experiment [2] is PL/J and C57/B6 T cell cultures. Description: L-PHA staining of mouse CD3+ T cells stimulated with anti-CD3, FACS. The following applies: listed as SW. Type of experiment: cell-based. The procedure: Mice used for L-PHA staining and quantitative RT-PCR were sex and age matched. […] 129/Sv mice were from an original Mgat5 gene targeted population (28). All other mice (SJL, NOD, Balb/c and B10.S) were obtained from Jackson Laboratories. […] Mouse and Jurkat cells were stained with L-PHA and LEA by first blocking with PBA (2% bovine serum albumin/0.01% azide/PBS) for 10 min at 4° C. and then incubated with 4 μg/ml of L-PHA-FITC (Vector Laboratories Inc.) or 20 μg/ml of LEA-FITC (Sigma) in PBA for 40 min at 4° C. and analyzed by a BD FACSCalihur (BD Pharmingen, San Diego, Calif.). The level of lectin binding was normalized by untreated control and calculated as a percentage (Sample intensity/control intensity-1) %.
Mice used for L-PHA staining and quantitative RT-PCR were sex and age matched. […] 129/Sv mice were from the original Mgat5 gene targeted population (28). All other mice (SJL, NOD, Balb/c and B10.S) were obtained from Jackson Laboratories. Mouse cells were stained with anti-CD4 (RM4-5), anti-CD8 (53-6.7), anti-CD45R (RA3-6B2) from eBioscience, and L-PHA (4 μg/ml) and LEA (20 μg/ml) from Sigma. […] The indicated monosaccharides and/or metabolites were added daily except glucose which was added only at time zero. […] The plateau or highest non-toxic dose is shown.

The test system of experiment [3] is CHO cells. Description: L-PHA and ConA lectin staining of CHO cells by FACS. Type of experiment: cell-based, Chinese Hamster. Conditions: CHO cells treated with inhibitor. From the text: (§1) For comparison of N-glycan profiles of mice and human MS patients, CHO cells and CHO cells deficient at 5 different steps in the N-glycan pathway (Glucosidase I, Mannosidase I, MGAT1, Mannosidase II and MGAT5, FIG. 7A) were used to define relative L-PHA and Concanavillin A (ConA) lectin staining levels by FACS along with MALDI TOF N-glycan processing profiles. […] Indeed, a human infant with severe human glucosidase I deficiency accumulates Glc3Man (885 A ion in FIG. 16A, 21C) in the urine, a 4 hexose oligomer which derives from the Glucosidase I substrate Glc3Man9GlcNAc2 via endo-mannosidase activity (70). […] Such activity would produce Man8GlcNAc2, Man7GlcNAc2 and Man6GlcNAc2 structures and allow processing by Mannosidase I/II. Indeed, N-glycans of these 3 compositions accumulate in Glucosidase I/II inhibited cells when Mannosidase I activity is blocked with DMN (69). The larger structures Glc3Man9GlcNAc2 (mass 3008) and Glc3Man7GlcNAc2 (mass 2600) were also observed (67), however they were at lower relative intensities compared to the A ion group (FIG. 21C). […] Mixing CHO and Lec1 cells in various proportions confirmed that relative differences in expression of N-glycan structures can be determined using MALDI TOF (FIG. 21G).
On the technique in general: In flow cytometry, cells or beads pass a laser one at a time.

Experiment [4] concerns PL/J and C57/B6 T cell cultures. Description: CFSE proliferation of mouse CD3+ T cells stimulated with anti-CD3. Type of experiment: cell-based. The following applies: wild type PL/J and C57/B6 T cells.
In experiment [5] the test system is CHO cells. Description: MALDI-TOF mass spectroscopy N-glycan profile of CHO cells. It is filed as cell-based, Chinese Hamster. The following applies: CHO cells treated with inhibitor. The procedure: This was done as a service at the Glycotechnology core facility, a resource of the Glycobiology Research and Training Center (GRTC) at the University of California, San Diego. CD3+ murine T cells (6×10^6), resting PBMCs from human controls and MS subjects (6×10^6) and CHO cells (10×10^6) were lysed with 1% SDS in 100 mM Tris pH 7.4, dialyzed to remove SDS, digested with trypsin to generate glycopeptides and treated with PNGaseF to release the N-glycans. To focus on early processing, N-glycans were desialylated by mild acid digestion prior to permethylation and MALDI-TOF mass spectroscopy. Monoisotopic peaks in the spectra were identified using GlycanMass and GlycoMod online software, with specific targeting of the N-glycan intermediates occurring during Golgi processing.
as §1

Several values for one entry are separate records, joined by “and”; a condition that tells them apart may be missing. Equal entries are not always repeated. Entries after “also recorded” stand apart in the source; their conditions may differ.

On to `CC(=O)N[C@H]1[C@@H](OP(=O)(O)OP(=O)(O)OC[C@H]2O[C@@H](n3ccc(=O)[nH]c3=O)[C@H](O)[C@@H]2O)O[C@H](CO)[C@@H](O)[C@@H]1O` [UDP-GlcNAc, UDP-N-acetylglucosamine], for which the Km (as a rule, the substrate concentration at which the rate is half of its maximum) in the experiment with MGAT4 was approximately 5 mM; in experiment [1], 0.00713 mM; on MGAT5 enzyme, ~10 mM and ~11 mM and 11 mM; on MGAT2 it was 0.9 mM; on MGAT1, 0.04 mM.
Regarding `O[C@H]1[C@H]2[C@H](O)CCCN2C[C@H]1O` [swainsonine], in [2] (anti-CD3, minimal concentrations), the “up-regulation of β1,6 GlcNAc branched N-glycans following stimulation” value is “significantly attenuated”. Moreover, the “resting levels of β1,6 GlcNAc branched N-glycans” value in experiment [2] (minimal concentrations) is recorded as “without affecting; also recorded: do not affect”. Besides, in the experiment on CHO cells [3], the “high-mannose structures as seen by ConA staining” value is reported as “increased” and the “β1,6GlcNAc-branched N-glycan expression by L-PHA staining” value was “dramatic reductions”. In addition, the “reversal of supplement effect on proliferation by blocking Mgat5 N-glycan expression” value in experiment [4] is on record as “reversed”. For the same molecule, in the experiment on CHO cells [5], the “MALDI TOF profile of N-glycans (accumulated structures)” value is given as “accumulation of hybrid structures” and the “β1,6GlcNAc-branched tetra-antennary N-glycans (mass 2969, structure G)” value is listed as “absent”.

Source of the values: patent US9775859B2, “Methods and compositions for preventing and treating a disease related to glycan dysregulation” (Sinai Health System, priority 2005, dated 2017).
